The source of these data is patent publication US20250288627A1, “COMPOSITION FOR AMELIORATING, PREVENTING OR TREATING SYSTEMIC SCLEROSIS AND PULMONARY FIBROSIS CONTAINING BIFIDOBACTERIUM LONGUM RAPO” (INDUSTRY-ACADEMIC COOPERATION FOUNDATION GYEONGSANG …, priority 2024, published 2025).

The subject of this assay is mice with idiopathic pulmonary fibrosis. As to the kind of experiment: Single/combination administration of pirfenidone and Bifidobacterium longum RAPO in idiopathic pulmonary fibrosis mice (intratracheal BLM 2 U/mouse kg). The class given is in vivo. To be noted: for pulmonary fibrosis: FIG. 3. From the text: To determine whether or not administration of a combination of pirfenidone (PFD), which is a conventional approved and used drug for pulmonary fibrosis, with Bifidobacterium longum RAPO, has a synergistic therapeutic effect due to Bifidobacterium longum RAPO, the inhibitory effects on pulmonary fibrosis after single and combination administration of PFD and Bifidobacterium longum were compared and evaluated in mice with idiopathic pulmonary fibrosis.
Idiopathic pulmonary fibrosis was induced by a single intratracheal injection of 50 μL (2 U/mouse kg) of BLM into 8-week-old male C57BL/6 mice to induce pulmonary fibrosis. Pirfenidone (PFD) and Bifidobacterium longum RAPO were administered orally 5 times a week for a total of 2 weeks, starting 7 days after inducing pulmonary fibrosis with BLM until the 21st day, the end date of the experiment. The administration groups and doses were as follows: 1) Normal control group: normal mice that were not administered any treatment; 2) disease control group: IPF mice administered vehicle containing neither PFD nor Bifidobacterium longum RAPO; 3) P100 group: IPF mice administered PFD 100 mg/mouse kg; 4) P200 group: IPF mice administered PFD 200 mg/mouse kg; 5) RAPO-A group: IPF mice administered Bifidobacterium longum RAPO 1×10^8 CFU/mouse; 6) RAPO-B group: IPF mice administered Bifidobacterium longum RAPO 5×10^8 CFU/mouse; 8) Comb A group: IPF mice administered a combination of PFD 100 mg/mouse kg and Bifidobacterium longum RAPO 1×10^8 CFU/mouse; 7) Comb B group: IPF mice administered a combination of 100 mg/mouse kg and Bifidobacterium longum RAPO 5×10^8 CFU/mouse. Efficacy evaluation was performed as follows. Lung tissues of mice with fibrosis induced on the 21st day after the start of BLM administration were sampled and fixed with formalin to form paraffin tissue blocks. The formed paraffin blocks were cut into 5 μm thick sections with a microtome and stained with Masson-Trichrome (MT), and the degree of pulmonary fibrosis was evaluated by analysis of an Ashcroft score, a collagen area, and an alveoli area.

Setting [1] is: P100 group: PFD 100 mg/mouse kg alone, compared to vehicle group.

As for `Cc1ccc(=O)n(-c2ccccc2)c1` [PFD, pirfenidone], where the note is “P100 group: PFD 100 mg/mouse kg alone, compared to P200 group”, the “pulmonary fibrosis amelioration relative to P200 group” value is reported as “did not ameliorate pulmonary fibrosis comparable to the P200 group”. Under setting [1], the Ashcroft score result is “improvement”, the collagen area result is recorded as “improvement” and the pulmonary fibrosis entry is listed as “also alleviated pulmonary fibrosis”. Further, under “P200 group: PFD 200 mg/mouse kg alone, oral, 5 times a week, 2 weeks, compared to vehicle group”, the pulmonary fibrosis entry is reported as “significantly alleviated pulmonary fibrosis”.
